Experimental data from patent publication US20130259844A1, “Fermented Foodstuff” (University of Plymouth, priority 2010, published 2013).

Columns and labels:
[1] = Fermentation of first milk substrate (dried skimmed milk powder), pH monitoring; details: incubated at 30° C.
Method: (§1) Lactic acid producing bacteria listed in Table 1 were tested for their ability to ferment two milk substrates according to the following procedures:
(§2) A commercially available dried skimmed milk powder was prepared according to the manufacturer's instructions to provide a first milk substrate. A milk replacer for calves (70 g) was mixed with water (100 g) to provide a second milk substrate. Both substrates were placed in a steamer for 30 minutes/day for each of 3 days for sterilisation.
(§3) Each lactic acid producing bacteria was grown in MRS broth (ex Oxoid) for 24 hours at 37° C.
(§4) 100 ml of each milk substrate was inoculated with 100 μl of the culture of each lactic acid producing bacteria. The samples were incubated at 30° C. for 48 hours. The ability of the bacteria to ferment the milk substrate was determined by monitoring the pH at intervals during the incubation of 0, 8, 24, 32 and 48 hours, with a reduction in the pH indicating the production of lactic acid. The results for the first and second milk substrates are set out in Tables 3 and 4 respectively.

[2] = Fermentation of second milk substrate (milk replacer for calves), pH monitoring; details: incubated at 30° C.
Method: as §1, §2, §3, §4

Substance	pH ([1]; 0 h)	pH ([1]; 8 h)	pH ([1]; 24 h)	pH ([1]; 32 h)	pH ([1]; 48 h)	pH ([2]; 0 h)	pH ([2]; 8 h)	pH ([2]; 24 h)	pH ([2]; 32 h)	pH ([2]; 48 h)
Lactobacillus plantarum [NCIMB 41607]	6.69	6.62	5.83	5.08	4.53	5.54	5.69	5.75	5.61	4.80
Lactobacillus salivarius ss. Salivarius [NCIMB 41609]	6.69	6.62	5.72	4.98	4.56	5.55	5.69	5.70	5.58	4.93
Lactobacillus plantarum [NCIMB 41605]	6.69	6.65	6.09	5.22	4.60	6.13	6.46	6.51	5.90	5.72
Lactobacillus salivarius ss. Salivarius [NCIMB 41610]	6.69	6.68	5.69	4.96	4.46	5.55	5.67	5.72	5.54	4.76
Lactobacillus plantarum [NCIMB 41608]	6.69	6.65	5.85	4.96	4.45	6.12	6.44	6.50	6.25	5.71
Lactobacillus salivarius ss. Salivarius [NCIMB 41606]	6.69	6.61	5.55	4.76	4.35	5.82	6.03	6.01	5.92	5.37
